Source: patent publication US6866861B1, “Method and composition for enhancing milk component concentrations” (Land O'Lakes, Inc., priority 1999, dated 2005)

What was measured:
[1] = system: cows; experiment: Oral feeding of sorbitol (not ruminally protected) to cows versus control group (Example 7); format: in vivo, cow
Procedure: To determine the weight percent total solids, wet basis, in a sample, the actual weight of total solids is determined by analyzing the sample in accordance with Method #925.23 (33.2.09) of Official Methods of Analysis, Association of Official Analytical Chemists (AOAC) (16th Ed., 1995). The weight percent total solids, wet basis, is then calculated by dividing the actual weight of total solids by the actual weight of the sample. The weight percent of true protein, wet basis, for a particular sample is calculated after first determining the wet basis weight percent of total Kjeldahl nitrogen and the wet basis weight percent of non-protein nitrogen in the sample. The wet basis weight percent of total Kjeldahl nitrogen in the sample is determined using the method referenced above. The wet basis weight percent of non-protein nitrogen (NPN) in the sample is determined in accordance with Method #991.21 (33.2.12) of Official Methods of Analysis, Association of Official Analytical Chemists (AOAC) (16th Ed., 1995). The weight percent of true protein, wet basis, in the sample is then determined by subtracting the wet basis weight percent of non-protein nitrogen in the sample from the wet basis weight percent of total Kjeldahl nitrogen in the sample. To determine the weight percent lactose, wet basis, in a liquid sample, the weight of the liquid sample is first determined. The actual weight of lactose in the liquid sample may then be determined using analysis kit number 176-303, that is available from Boehringer-Mannheim of Indianapolis, Ind. in accordance with the procedural instructions included with analysis kit number 176-303. The weight percent lactose, wet basis, in the liquid sample is then calculated by dividing the actual weight of lactose in the liquid sample by the actual weight of the liquid sample. To determine the weight percent fat, wet basis, in a sample, the actual weight of fat in the sample is determined in accordance with Method #974.09 (33.7.18) of Official Methods of Analysis, Association of Official Analytical Chemists (AOAC) (16th Ed., 1995). The weight percent fat, wet basis, is then calculated by dividing the actual weight of fat in the sample by the actual weight of the sample. In this example, ten cows were orally fed 100 grams per cow per day of sorbitol along with their other daily rations during a test period of four weeks, while ten different cows of a control group were orally fed the same daily rations as the ten cows, with the exception that the ten cows of this control group were not given any sorbitol. The milk of the cows in the control group and the milk of the cows given sorbitol was sampled twice per week during the four week test period. Therefore, the values presented in Table 6 below for the various milk components for the control group and for the cows fed sorbitol represent averages of eight milk samples during the test period. The probability value, P, that is presented in Table 6 for each of the different milk components is a measure of statistical probability that the differing values between the control cattle and the cattle fed sorbitol, for each respective milk component, can be explained by the difference between the control group not being fed sorbitol and the test group that was fed sorbitol. A P value of 0.10 means that 10 times out of 100 the results can be explained by factors other than the feeding or withholding of sorbitol. […]

[2] = system: cows; experiment: Cyclic oral feeding of glycerol to cows, milk component concentrations (Example 8); format: in vivo, cow; conditions: for Fat in Milk / Lactose in Milk / Total Solids in Milk / True Protein in Milk: oral
Procedure: To determine the weight percent total solids, wet basis, in a sample, the actual weight of total solids is determined by analyzing the sample in accordance with Method #925.23 (33.2.09) of Official Methods of Analysis, Association of Official Analytical Chemists (AOAC) (16th Ed., 1995). The weight percent total solids, wet basis, is then calculated by dividing the actual weight of total solids by the actual weight of the sample. The weight percent of true protein, wet basis, for a particular sample is calculated after first determining the wet basis weight percent of total Kjeldahl nitrogen and the wet basis weight percent of non-protein nitrogen in the sample. The wet basis weight percent of total Kjeldahl nitrogen in the sample is determined using the method referenced above. The wet basis weight percent of non-protein nitrogen (NPN) in the sample is determined in accordance with Method #991.21 (33.2.12) of Official Methods of Analysis, Association of Official Analytical Chemists (AOAC) (16th Ed., 1995). The weight percent of true protein, wet basis, in the sample is then determined by subtracting the wet basis weight percent of non-protein nitrogen in the sample from the wet basis weight percent of total Kjeldahl nitrogen in the sample. To determine the weight percent lactose, wet basis, in a liquid sample, the weight of the liquid sample is first determined. The actual weight of lactose in the liquid sample may then be determined using analysis kit number 176-303, that is available from Boehringer-Mannheim of Indianapolis, Ind. in accordance with the procedural instructions included with analysis kit number 176-303. The weight percent lactose, wet basis, in the liquid sample is then calculated by dividing the actual weight of lactose in the liquid sample by the actual weight of the liquid sample. To determine the weight percent fat, wet basis, in a sample, the actual weight of fat in the sample is determined in accordance with Method #974.09 (33.7.18) of Official Methods of Analysis, Association of Official Analytical Chemists (AOAC) (16th Ed., 1995). The weight percent fat, wet basis, is then calculated by dividing the actual weight of fat in the sample by the actual weight of the sample. In Example 8, glycerol was periodically fed orally to several test cows. Period 1 lasted from week 1-3, Period 2 lasted from week 4-6, and Period 3 lasted from week 7-9, with week 0 being the start of the test period in which no glycerol was provided. The results presented in Table 7 below are averages for particular components for milk produced from each of the test animals.

[3] = milk, oral 100 gr/day, four weeks, 10 cows, average of eight samples
[4] = Period 1 (Fed Glycerol), weeks 1-3
[5] = Period 3 (Fed Glycerol), weeks 7-9

Row | Structure (SMILES) | Fat [1, 3] [Wt %] | Lactose [1, 3] [Wt. %] | Total Solids [1, 3] [Wt. %] | True Protein [1, 3] [Wt. %] | weight percent of milk components versus control group (conclusion in words) ([1]; oral feeding, not ruminally protected) | fat, lactose, or total solids content of the milk (conclusion in words) ([2]; cyclic oral feeding) | Fat in Milk [2, 4] [wt %] | Lactose in Milk [2, 4] [wt %] | Total Solids in Milk [2, 4] [wt %] | True Protein in Milk [2, 4] [wt %] | Fat in Milk [2, 5] [wt %] | Lactose in Milk [2, 5] [wt %] | Total Solids in Milk [2, 5] [wt %] | True Protein in Milk [2, 5] [wt %]
1 | OC[C@@H](O)[C@@H](O)[C@H](O)[C@@H](O)CO [sorbitol] | 4.02 | 4.81 | 12.11 | 2.76 | no statistically significant increase | – | – | – | – | – | – | – | – | –
2 | OCC(O)CO [glycerol] | – | – | – | – | – | no increase or essentially no increase | 3.06 | 4.97 | 11.38 | 2.64 | 3.22 | 4.80 | 11.43 | 2.69
